The results in this text go back to patent publication US11484543B2, “Compositions and methods for diagnosing and treating diseases and disorders associated with mutant KCNJ5” (The Rockefeller University, priority 2017, dated 2022).

As a reminder, the IC50 is the concentration that gives 50% inhibition.

Common to all, as to type: cell-based
One test has as its target T1, KCNJ5^G151R (Homo sapiens, UniProt P48544, G151R).
T1 construct: expressed in transfected cells
T1 sequence (P48544 1-419 G151R): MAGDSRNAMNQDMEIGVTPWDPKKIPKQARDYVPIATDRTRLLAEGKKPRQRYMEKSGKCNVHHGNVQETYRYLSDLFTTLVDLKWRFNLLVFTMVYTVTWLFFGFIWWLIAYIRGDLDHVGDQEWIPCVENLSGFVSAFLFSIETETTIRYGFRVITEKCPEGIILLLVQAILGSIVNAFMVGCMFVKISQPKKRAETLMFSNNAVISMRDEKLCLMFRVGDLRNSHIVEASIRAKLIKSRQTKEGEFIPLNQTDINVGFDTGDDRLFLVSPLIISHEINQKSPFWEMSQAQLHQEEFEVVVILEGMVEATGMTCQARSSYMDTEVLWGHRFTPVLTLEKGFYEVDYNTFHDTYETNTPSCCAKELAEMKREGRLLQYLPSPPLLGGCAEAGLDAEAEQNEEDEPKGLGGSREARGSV
In words: cell-based. Conditions: for G151R maximum inhibition / G151R minimum inhibition / IC50: 10-point dilution 20 to 0.0391 μM, N=3, four-parameter fit. As for the experimental part: (§1) WT or mutant human KCNJ5 cDNAs (Choi et al., 2011, Science 331:768-772) were subcloned into the pcDNA5/FRT/TO vector using BamHI and HindIII. Single copies of WT or mutant human KCNJ5 cDNAs expressed under the control of tetracycline-inducible promoter were introduced into HEK293 cells using the Flp-in T-Rex System (Invitrogen) according to the manufacturer's instructions. Cells were grown in selective media containing 10% Tet-system approved FBS (Clontech) until induction.
(§2) Assay plates were centrifuged and incubated overnight at 37° C. 20 nL was transferred from the compound source plate to the cell assay plate using an Aquarius (Tecan) with a 384-well pin tool (V&P Scientific). The final concentration of compound for screening was 10 μM and the final DMSO concentration was 0.1%. 1 μL of tetracycline (final concentration 1 μg/mL) was added to compound containing and negative control wells by Multidrop Combi to induce expression. 1 μL of media was added to positive control wells. Assay plates were centrifuged and incubated for 72 hours at 37° C., 5% CO2. CellTiter-Glo (Promega) was used to measure cell viability in the assay wells according to the manufacturer's instructions. 10 μL/well of CellTiter-Glo reagent was added to the assay plates using a MultiDrop Combi. The plates were shaken on a Thermomixer R (Eppendorf) at 1100 rpm for 1 minute and incubated in the dark for 10 minutes at room temperature. Luminescence was read on an Envision plate reader (PerkinElmer) with 0.3 second sampling time per well. Raw data (luminescence counts per second) was normalized to percent effect by the formula 100−(((sample−negative control mean)/(positive control mean−negative control mean))*100).
(§3) Data was analyzed using the programs Excel (Microsoft) and Prism (GraphPad). Errors are SD unless otherwise indicated in the legend. Dose-response curves were fitted with a four-parameter logistic equation: F(x)=D+(A−D)/(1+(x/C)^B), with A=minimum inhibition B=Hill's slope C=inflection point D=maximum inhibition Synthesis of Macrolide Derivatives
(§4) Cellular ATP levels were measured as a proxy for cell viability, using a commercially available luciferase assay (Crouch et al., 1993, Proc. Natl. Acad. Sci. U.S.A. 109:2533-2538).
(§5) Conditions were designed to maximize reproducibility and the signal-to-background ratios (S/B) (Zhang et al., 1999, J. Biomol. Screen 4:67-73) comparing ATP level in uninduced and induced cells. Screening was performed in 384-well plates; compounds were added 24 hours after plating, and channel expression was induced immediately after compound addition. ATP levels were measured 72 hours after induction.
Levels of ATP in uninduced and induced cells without added test compound defined 100% and 0% effect, respectively, and served as a proxy for lethality.

In the next test the target is T2, KCNJ5^WT (Homo sapiens, UniProt P48544).
T2 construct: expressed in transfected cells
T2 sequence (P48544 1-419): T1 sequence (P48544 1-419 G151R) with R151G
Briefly: Membrane potential assay (FLIPR dye) in inducible KCNJ5^WT HEK293 cells. The following applies: 10-point dilution 20 to 0.0391 μM, N=3, four-parameter fit. The protocol:
Single copies of WT or mutant human KCNJ5 cDNAs expressed under the control of tetracycline-inducible promoter were introduced into HEK293 cells using the Flp-in T-Rex System (Invitrogen) according to the manufacturer's instructions. Cells were grown in selective media containing 10% Tet-system approved FBS (Clontech) until induction.
20 μL of WT cells were plated into sterile black with clear bottom tissue culture-treated 384-well plates (Corning) at a density of 10000 cells/well using a Multidrop Combi. Assay plates were centrifuged at 500 rpm for 10 seconds and incubated overnight at 37° C. in a humidified 5% CO2 incubator. After the overnight incubation, 1 μL of tetracycline (final conc. 1 μg/mL) was added to all wells by Multidrop Combi to induce KCNJ5. Assay plates were centrifuged at 500 rpm for 10 seconds and incubated overnight at 37° C. in a humidified 5% CO2 incubator. The next day, 10 μL of medium was removed from each well using a PlateMate Plus (Thermo Scientific). 10 μL of Blue Formula FLIPR membrane potential dye (Molecular Devices) was added to cells using a Multichannel pipettor. Assay plates were incubated for 30 minutes. at 37° C. After incubation, 20 nL was transferred twice from the compound source plate to the cell assay plate using an Aquarius with a 384-well pin tool for a total transfer volume of 40 nL and a final DMSO concentration of 0.2%. 1 μL of 20 mM BaCl2 was added to positive control wells using a Multichannel pipettor. The assay plate was incubated 20 minutes at room temperature in the dark.
Changes in membrane potential were detected using a well-established fluorescence-based measure of membrane potential (FIG. 4).

A further test has as its target T3, KCNJ5^L168R (Homo sapiens, UniProt P48544, L168R).
T3 construct: expressed in transfected cells
T3 sequence (P48544 1-419 L168R): T1 sequence (P48544 1-419 G151R) with R151G, L168R
Briefly: Cell viability assay (ATP, CellTiter-Glo): rescue of KCNJ5^L168R-induced lethality in inducible HEK293 cells. Conditions: for dose response on KCNJ5^L168R: tested at 1.1, 3.3 and 10 μM. The protocol:
as §1, §2, §3, §4, §5

The mark [1] stands for this setting: 10-point dilution 20 to 0.0391 μM, N=3, four-parameter fit.

Each structure is given as a SMILES string. Substitutions are numbered along the chain they refer to. Read-outs that look alike come from different tables or passages of the source.

On KCNJ5^G151R, `CC[C@H]1OC(=O)[C@H](C)[C@@H](O[C@H]2C[C@@](C)(OC)[C@@H](O)[C@H](C)O2)[C@H](C)[C@@H](O[C@@H]2O[C@H](C)C[C@H](N(C)C)[C@H]2O)[C@](C)(O)C[C@@H](C)CN(C)[C@H](C)[C@@H](O)[C@]1(C)O` [Azithromycin, azithromycin] returned a G151R maximum inhibition of 32.00%, a G151R minimum inhibition of 5.11% and an IC50 of 5.69 µM. The “WT IC50” value at KCNJ5^WT is listed as “No fit”. On KCNJ5^L168R (setting [1]), this molecule had an IC50 of 8.05 µM, an L168R maximum inhibition of 12.01% and an L168R minimum inhibition of 0.71%.

For `CC[C@H]1OC(=O)[C@H](C)[C@@H](O[C@H]2C[C@@](C)(OC)[C@@H](O)[C@H](C)O2)[C@H](C)[C@@H](O[C@@H]2O[C@H](C)C[C@H](N(C)C)[C@H]2O)[C@](C)(OC)C[C@@H](C)C(=O)[C@H](C)[C@@H](O)[C@]1(C)O` [Clarithromycin, clarithromycin], at KCNJ5^G151R, the G151R maximum inhibition worked out at 83.09%, the G151R minimum inhibition came to 6.40% and the IC50 is 0.71 µM. The “inhibition of KCNJ5^MUT (structure-activity statement)” value at KCNJ5^G151R (macrolide series, dilution curves) is listed as “potent effects”. For the same molecule, the “WT IC50” value on KCNJ5^WT was “No fit”. On KCNJ5^L168R (setting [1]), this molecule yielded an IC50 of 1.72 µM, an L168R maximum inhibition of 55.70% and an L168R minimum inhibition of 2.35%. The “dose response on KCNJ5^L168R” value on KCNJ5^L168R is “showed a dose response”.

On to `CC[C@H]1OC(=O)[C@H](C)[C@@H](O[C@H]2C[C@@](C)(OC)[C@@H](O)[C@H](C)O2)[C@H](C)[C@@H](O[C@@H]2O[C@H](C)C[C@H](N(C)C)[C@H]2O)[C@](C)(O)C[C@@H](C)[C@@H]2N[C@@H](COCCOC)O[C@H]([C@H]2C)[C@]1(C)O` [Dirithromycin, dirithromycin], for which, at KCNJ5^G151R, the G151R maximum inhibition is listed as 18.29%, the G151R minimum inhibition is 1.31% and the IC50 was determined as 15.8 µM. Further, the “WT IC50” value at KCNJ5^WT is on record as “No fit”. For the same molecule, at KCNJ5^L168R (setting [1]), the “L168R IC50” value is “No fit”.

With `CC[C@H]1OC(=O)[C@H](C)[C@@H](O[C@H]2C[C@@](C)(OC)[C@@H](O)[C@H](C)O2)[C@H](C)[C@@H](O[C@@H]2O[C@H](C)C[C@H](N(C)C)[C@H]2O)[C@](C)(O)C[C@@H](C)C(=NO)[C@H](C)[C@@H](O)[C@]1(C)O` [Erythromycin A Oxime, erythromycin A oxime], at KCNJ5^G151R, the G151R maximum inhibition was 84.11%, the G151R minimum inhibition is given as 2.49% and the IC50 turned out to be 2.88 µM. Besides, the “WT IC50” value on KCNJ5^WT is “No fit”. At KCNJ5^L168R (setting [1]), this molecule came in with an IC50 of 8.13 µM, an L168R maximum inhibition of 60.00% and an L168R minimum inhibition of 0.65%. In addition, on KCNJ5^L168R, the “dose response on KCNJ5^L168R” value is “showed a dose response”.

As for `CC[C@H]1OC(=O)[C@H](C)[C@@H](O[C@H]2C[C@@](C)(OC)[C@@H](O)[C@H](C)O2)[C@H](C)[C@@H](O[C@@H]2O[C@H](C)C[C@H](N(C)C)[C@H]2O)[C@](C)(O)C[C@@H](C)C(=O)[C@H](C)[C@@H](O)[C@H]1C` [Erythromycin B, erythromycin B], on KCNJ5^G151R, the G151R maximum inhibition is recorded as 84.36%, the G151R minimum inhibition was 7.15% and the IC50 was 1.23 µM. Also, the “WT IC50” value at KCNJ5^WT is given as “No fit”. At KCNJ5^L168R (setting [1]), this molecule gave an IC50 of 4.73 µM, an L168R maximum inhibition of 80.00% and an L168R minimum inhibition of 1.62%.

On KCNJ5^G151R, `CC[C@H]1OC(=O)[C@H](C)[C@@H](O[C@H]2C[C@@](C)(O)[C@@H](O)[C@H](C)O2)[C@H](C)[C@@H](O[C@@H]2O[C@H](C)C[C@H](N(C)C)[C@H]2O)[C@](C)(O)C[C@@H](C)C(=O)[C@H](C)[C@@H](O)[C@]1(C)O` [Erythromycin C, erythromycin C] showed a G151R maximum inhibition of 75.00%, a G151R minimum inhibition of 6.72% and an IC50 of 9.19 µM. The “WT IC50” value on KCNJ5^WT is given as “No fit”. Besides, on KCNJ5^L168R (setting [1]), 12.2 µM corresponded to half-maximal inhibition (IC50), the L168R maximum inhibition turned out to be 18.43% and the L168R minimum inhibition was 1.41%.

At KCNJ5^G151R, `CC[C@H]1OC(=O)[C@H](C)[C@@H](O[C@H]2C[C@@](C)(OC)[C@@H](O)[C@H](C)O2)[C@H](C)[C@@H](O[C@@H]2O[C@H](C)C[C@H](N(C)C)[C@H]2O)[C@](C)(O)C[C@@H](C)C(=O)[C@H](C)[C@@H](O)[C@]1(C)O` [Erythromycin, erythromycin] had a G151R maximum inhibition of 90.00%, a G151R minimum inhibition of 3.55% and a half-inhibitory concentration (IC50) of 10.5 µM. Besides, at KCNJ5^G151R (HEK293, 72 h, mean of primary screen and hit pick, read-out: mean % effect), the viability at 10 µM amounted to 73%. Besides, the viability at 10 µM on KCNJ5^G151R (HEK293, ATP level 72 h after induction, uninduced = 100%, induced = 0% effect, first of the two runs (primary screen / hit pick), read-out: % effect (1)) turned out to be 91.9%. The viability at 10 µM at KCNJ5^G151R (HEK293, ATP level 72 h after induction, uninduced = 100%, induced = 0% effect, second of the two runs (primary screen / hit pick, confirmatory testing), read-out: % effect (2)) was found to be 54.2%. Also, at KCNJ5^WT, the “WT IC50” value is listed as “No fit”. On KCNJ5^L168R (setting [1]), this molecule showed an IC50 of 11.8 µM, an L168R maximum inhibition of 25.00% and an L168R minimum inhibition of 0.71%. Further, the “dose response on KCNJ5^L168R” value on KCNJ5^L168R is “showed a dose response”.
